This is an account of results in paper PMC11624893 (Journal of the American Chemical Society, 2024).

Positions of bridges follow the written chain, without caps; N, C: chain ends. Non-standard residues stand in square brackets, D forms with d. Residues, ends and D or L forms follow the SMILES beside them. *: point of attachment. X1 = CC[C@H](C)CCCCC(=O)*; Dab = NCC[C@H](N)C(=O)O

The subject of assay [1] is K. pneumoniae 700603. Briefly: microbe, parasite or virus in culture. The conditions noted are these: Klebsiella pneumoniae, 700603, read-out: Minimum Inhibitory Concentration (MIC).
In assay [2] the test system is S. aureus 29213. Briefly: Minimum inhibitory concentration. Type of assay: cell-based. The conditions noted are these: for Minimum Inhibitory Concentration (MIC): S. aureus 29213, Gram-positive, actively growing.
Assay [3] has as its system A. baumannii 19606. As to the kind of experiment: Minimum inhibitory concentration. Type of assay: cell-based. The conditions noted are these: for Minimum Inhibitory Concentration (MIC): A. baumannii 19606, Gram-negative.
In assay [4] the test system is E. faecium 51559. Briefly: microbe, parasite or virus in culture. The conditions noted are these: Enterococcus faecium, VRE, read-out: Minimum Inhibitory Concentration (MIC).
Assay [5] deals with M. avium 700898. As to the kind of experiment: microbe, parasite or virus in culture. The conditions noted are these: Mycobacterium avium, 700898, read-out: Minimum Inhibitory Concentration (MIC).
Assay [6] relates to E. coli 25922. Briefly: Minimum inhibitory concentration. The format is cell-based. The conditions noted are these: for Minimum Inhibitory Concentration (MIC): E. coli 25922, Gram-negative.
The subject of assay [7] is P. aeruginosa PA14. As to the kind of experiment: Minimum inhibitory concentration. The format is cell-based. The conditions noted are these: for Minimum Inhibitory Concentration (MIC): P. aeruginosa PA14, Gram-negative.
Assay [8] has as its system K. pneumoniae 700603. The conditions noted are these: K. pneumoniae 700603, Gram-negative.
For assay [9], the system named is M. avium 700898. The conditions noted are these: M. avium 700898, mycobacteria.
For assay [10], the system named is biofilm-associated E. coli 25922. As to the kind of experiment: Minimum biofilm eradication concentration. The format is cell-based.
For assay [11], the system named is biofilm-associated S. aureus 29213. As to the kind of experiment: Minimum biofilm eradication concentration. Type of assay: cell-based.
Assay [12] relates to M. smegmatis 700084. Briefly: Minimum inhibitory concentration. The conditions noted are these: M. smegmatis 700084, mycobacteria. The format is cell-based.
Assay [13] relates to M. abscessus 19977. As to the kind of experiment: Minimum inhibitory concentration. Type of assay: cell-based. The conditions noted are these: M. abscessus 19977, mycobacteria.
For assay [14], the system named is biofilm-associated M. smegmatis 700084. Briefly: Minimum biofilm eradication concentration. The format is cell-based.
Assay [15] concerns E. faecium 51559. The conditions noted are these: E. faecium 51559, vanA-type resistance reference strain (VRE).
Assay [16] deals with panel containing Gram-positive, Gram-negative, and mycobacterial microorganisms. Briefly: MIC assay, statements over the whole panel. Type of assay: cell-based. The conditions noted are these: Gram-negative organisms (E. coli, A. baumannii, K. pneumoniae, P. aeruginosa).
Assay [17] deals with E. coli 25922. Briefly: Outer membrane permeability, 1-N-phenylnapthylamine. The format is cell-based. The conditions noted are these: E. coli 25922, 5e at 80 μM (10x MIC).
For assay [18], the system named is S. aureus 29213. Briefly: Membrane permeability, propidium iodide. The format is cell-based. The conditions noted are these: S. aureus 29213, exponential-phase cells in HEPES-Glucose buffer.
The test system of assay [19] is S. aureus. Briefly: Peptidoglycan precursor accumulation, LC-MS. The format is cell-based. The conditions noted are these: treatment, cell lysis.
The subject of assay [20] is M. smegmatis 700084. As to the kind of experiment: Ethidium bromide. The conditions noted are these: M. smegmatis 700084, 8 μM (1x MIC). The format is cell-based.
The subject of assay [21] is M. smegmatis. As to the kind of experiment: Peptidoglycan precursor accumulation, LC-MS. The format is cell-based. The conditions noted are these: treatment, cell lysis.
Where [22] appears, read: pre-formed biofilm of E. coli 25922, Table 2.
The mark [23] stands for this setting: pre-formed biofilms of E. coli 25922, as given in the text.
Where [24] appears, read: biofilm-associated S. aureus 29213, as given in the text.

For the molecule `CN(C)C(=N)N=C(N)N` [Metformin, metformin], the MIC in assay [1] is > 512 µM; in [2] (Staphylococcus aureus, 29213, read-out: Minimum Inhibitory Concentration (MIC)), > 512 µM; in assay [3] (Acinetobacter baumannii, 19606, read-out: Minimum Inhibitory Concentration (MIC)) it was > 512 µM; in assay [4], > 512 µM; in assay [5], > 512 µM; in assay [6] (Escherichia coli, 25922, read-out: Minimum Inhibitory Concentration (MIC)), > 512 µM. Besides, in assay [7] (Pseudomonas aeruginosa, PA14, read-out: Minimum Inhibitory Concentration (MIC)), the MIC is > 512 µM.
Consider `CN[C@H](CC(C)C)C(=O)N[C@H]1C(=O)N[C@@H](CC(N)=O)C(=O)N[C@H]2C(=O)N[C@H]3C(=O)N[C@H](C(=O)N[C@H](C(=O)O)c4cc(O)cc(O)c4-c4cc3ccc4O)[C@H](O[C@H]3C[C@](C)(N)[C@@H](O)[C@H](C)O3)c3ccc(c(Cl)c3)Oc3cc2cc(c3O[C@@H]2O[C@H](CO)[C@@H](O)[C@H](O)[C@H]2O[C@H]2C[C@](C)(NCc3ccc(-c4ccc(Cl)cc4)cc3)[C@@H](O)[C@H](C)O2)Oc2ccc(cc2Cl)[C@H]1O` [Oritavancin, oritavancin], for which the “Minimum Inhibitory Concentration (MIC)” value in [8] was >512 µM; in [2], 1 µM; in assay [9], 128 µM; in assay [3], 512 µM; in assay [6], >512 µM; in assay [7] it was >512 µM. Moreover, the “Minimum Inhibitory Concentration (MIC)” value in assay [12] stood at 32 µM; in [13], 128 µM; in assay [15], 2 µM. The “minimum biofilm eradication concentration (MBEC)” value in [10] (setting [22]) was >128 µM; in assay [10] (setting [23]), “no activity”; in assay [11] (setting [24]), 2 to 4 µM; in assay [11] (pre-formed biofilm of S. aureus 29213, Table 2) it was 2 to 4 µM; in assay [14] (pre-formed biofilms of M. smegmatis 700084, as given in the text) it was > 256 µM.
With `CC[C@H](C)CCCCC(=O)N[C@@H](CCN)C(=O)N[C@H](C(=O)N[C@@H](CCN)C(=O)N[C@H]1CCNC(=O)[C@H]([C@@H](C)O)NC(=O)[C@H](CCN)NC(=O)[C@H](CCN)NC(=O)[C@H](CC(C)C)NC(=O)[C@@H](Cc2ccccc2)NC(=O)[C@H](CCN)NC1=O)[C@@H](C)O` [Polymyxin B, polymyxin B] (X1-[Dab]T[Dab][Dab][Dab][dF]L[Dab][Dab]T; lactam 4-C (inferred); N-terminus assumed), the “minimum biofilm eradication concentration (MBEC)” value in assay [10] (setting [22]) and in assay [10] (setting [23]) was 16 to 32 µM each time.
As to `CO[C@H]1/C=C/O[C@@]2(C)Oc3c(C)c(O)c4c(O)c(c(/C=N/N5CCN(C)CC5)c(O)c4c3C2=O)NC(=O)/C(C)=C\C=C\[C@H](C)[C@H](O)[C@@H](C)[C@@H](O)[C@@H](C)[C@H](OC(C)=O)[C@@H]1C` [Rifampicin, rifampicin], the “minimum biofilm eradication concentration (MBEC)” value in [11] (setting [24]) was 16 to 32 µM.
As to `CN[C@H](CC(C)C)C(=O)N[C@H]1C(=O)N[C@@H](CC(N)=O)C(=O)N[C@H]2C(=O)N[C@H]3C(=O)N[C@H](C(=O)N[C@H](C(=O)O)c4cc(O)cc(O)c4-c4cc3ccc4O)[C@H](O)c3ccc(c(Cl)c3)Oc3cc2cc(c3O[C@@H]2O[C@H](CO)[C@@H](O)[C@H](O)[C@H]2O[C@H]2C[C@](C)(N)[C@H](O)[C@H](C)O2)Oc2ccc(cc2Cl)[C@H]1O` [Vancomycin, vancomycin], the “Minimum Inhibitory Concentration (MIC)” value was 256 to 512 µM in [8]; 1 µM in assay [2]; 16 µM in [9]; 64 to 128 µM in [3]; 128 to 256 µM in assay [6]; 256 to 512 µM in assay [7]. In addition, the “Minimum Inhibitory Concentration (MIC)” value was 8 µM in [12], 32 to 64 µM in assay [13] and 512 µM in assay [15]. Moreover, the “minimum biofilm eradication concentration (MBEC)” value in [10] (setting [23]) was 256 µM; in assay [11] (setting [24]), > 512 µM; in assay [14] (pre-formed biofilm of M. smegmatis 700084, Table 2), 64 µM. The “typical MIC against Gram-negative organisms” value in assay [16] is ≥ 128 µM. In addition, in assay [17], the “NPN fluorescence (outer membrane destabilization)” value is “no increase in fluorescence”. Also, the “PI fluorescence (membrane permeabilization)” value in [18] is given as “no increase in fluorescence”. Further, in assay [19], the “accumulation of peptidoglycan precursor (UDP-MurNAc pentapeptide)” value is “accumulation of the UDP-MurNAc pentapeptide”. The EtBr fluorescence entry in [20] was “did not influence EtBr fluorescence”. The “accumulation of peptidoglycan precursor (UDP-MurNGlyc pentapeptide)” value in assay [21] is on record as “related UDP-MurNGlyc pentapeptide in M. smegmatis”.
Take Gentamycin: the “minimum biofilm eradication concentration (MBEC)” value in assay [10] (setting [22]) amounted to 8 µM.
